Results as given in patent US11939307B2, “Phenylmethyl-piperazine derivatives and antiviral uses thereof” (INSTITUTE OF MEDICINAL BIOTECHNOLOGY, CHINESE ACADEMY OF …, priority 2019, dated 2024).

System: HCV
Assay: Assay of anti-HCV activity in HCV-infected Huh7.5 cells (intracellular HCV RNA by one-step quantitative RT-PCR)
Format: cell-based
Conditions: Hepatitis C virus; compound at 1 μM; Huh7.5 cells infected with HCV; 96 hrs; intracellular HCV RNA vs viral control; read-out: inhibitory activities (inhibitory levels of the compounds against HCV replication)
Procedure: 100 μL Huh7.5 cells were seeded at a density of 1×10^5/mL in a 96-well cell culture plate and incubated in an incubator at 37° C., 5% CO2 and saturated humidity for 6 hrs. Then, while infecting Huh7.5 cells with viral solution containing HCV virus particles, the compounds of the present invention (including all specific compounds listed herein) were added at a concentration of 1 μM, respectively. After continuing incubation for 96 hrs, the total intracellular RNA was extracted separately, and the content of intracellular HCV RNA was measured by one-step quantitative RT-PCR, compared with the RNA level of the viral control, and the inhibition rate of the compounds against HCV was calculated.

| SMILES | inhibition at 1 µM [%] |
| --- | --- |
| CCN1CCCC1CN(C)c1ccc(C(F)(F)F)c(CN2CCN(c3ccc(Cl)cc3)CC2)c1 (stereo not drawn) [Compound 25, 3-((4-(4-chlorophenyl)piperazin-1-yl)methyl)-N-((1-ethylpyrrolidin-2-yl)methyl)-N-methyl-4-(trifluoromethyl)aniline] | > 75 |
| CN(C)CCN(C)c1ccc(C(F)(F)F)c(CN2CCN(c3ccc(Br)c(Cl)c3)CC2)c1 [Compound 26, N^1-(3-((4-(4-bromo-3-chlorophenyl)piperazin-1-yl)methyl)-4-(trifluoromethyl)phenyl)-N^1,N^2,N^2-trimethylethan-1,2-diamine] | > 75 |
| CN(C)C1CCN(c2ccc(C(F)(F)F)c(CN3CCN(c4ccc(Cl)cc4)CC3)c2)CC1 [Compound 27, 1-(3-((4-(4-chlorophenyl)piperazin-1-yl)methyl)-4-(trifluoromethyl)phenyl)-N,N-dimethylpiperidin-4-amine] | > 75 |
| FC(F)(F)c1ccc(N2CCC(N3CCCC3)CC2)cc1CN1CCN(c2ccc(Cl)cc2)CC1 [Compound 28, 1-(4-chlorophenyl)-4-(5-(4-(pyrrolidin-1-yl)piperidin-1-yl)-2-(trifluoromethyl)benzyl)piperazine] | > 75 |
| CN(C)C1CCN(c2ccc(C(F)(F)F)c(CN3CCN(c4ccc(Cl)cc4)CC3)c2)C1 (stereo not drawn) [Compound 29, 1-(3-((4-(4-chlorophenyl)piperazin-1-yl)methyl)-4-(trifluoromethyl)phenyl)-N,N-dimethylpyrrolidin-3-amine] | > 75 |
| CN1CCN(c2ccc(C(F)(F)F)c(CN3CCN(c4ccc(Cl)cc4)CC3)c2)CC1 [Compound 30, 1-(4-chlorophenyl)-4-(5-(4-methylpiperazin-1-yl)-2-(trifluoromethyl)benzyl)piperazine] | > 75 |
| CC1CN(c2ccc(Cl)cc2)CCN1Cc1cc(N(C)CN2CCCCC2)ccc1C(F)(F)F (stereo not drawn) [Compound 31, 3-((4-(4-chlorophenyl)-2-methylpiperazin-1-yl)methyl)-N-methyl-N-(piperidin-1-ylmethyl)-4-(trifluoromethyl)aniline] | > 75 |
| CC1CN(c2ccc(Cl)c(C(F)(F)F)c2)CCN1Cc1cc(N2CCCN(C)CC2)ccc1C(F)(F)F (stereo not drawn) [Compound 32, 1-(3-((4-(4-chloro-3-(trifluoromethyl)phenyl)-2-methylpiperazin-1-yl)methyl)-4-(trifluoromethyl)phenyl)-4-methyl-1,4-diazepane] | > 75 |
| CC1CN(c2ccc(Br)c(C(F)(F)F)c2)CCN1Cc1cc(N(C)CCN(C)C)ccc1C(F)(F)F (stereo not drawn) [Compound 33, N^1-(3-((4-(4-bromo-3-(trifluoromethyl)phenyl)-2-methylpiperazin-1-yl)methyl)-4-(trifluoromethyl)phenyl)-N^1,N^2,N^2-trimethylethan-1,2-diamine] | > 75 |
| CCCC1CN(c2ccc(C(F)(F)F)cc2)CCN1Cc1cc(N2CCCN(C)CC2)ccc1C(F)(F)F (stereo not drawn) [Compound 34, 1-methyl-4-(3-((2-propyl-4-(4-(trifluoromethyl)phenyl)piperazin-1-yl)methyl)-4-(trifluoromethyl)phenyl)-1,4-diazepane] | > 75 |
| CCN1CCCN(c2ccc(C(F)(F)F)c(CN3CCN(c4ccc(C)c(Cl)c4)CC3)c2)CC1 [Compound 35, 1-(3-((4-(3-chloro-4-methylphenyl)piperazin-1-yl)methyl)-4-(trifluoromethyl)phenyl)-4-ethyl-1,4-diazepane] | > 75 |
| CN1CCCN(c2ccc(C(F)(F)F)c(CN3CCN(c4ccc(F)cc4)CC3)c2)CC1 [Compound 36, 1-(3-((4-(4-fluorophenyl)piperazin-1-yl)methyl)-4-(trifluoromethyl)phenyl)-4-methyl-1,4-diazepane] | > 75 |
| CN1CCCN(c2ccc(C(F)(F)F)c(CN3CCN(c4ccc(F)c(Cl)c4)CC3)c2)CC1 [Compound 37, 1-(3-((4-(3-chloro-4-fluorophenyl)piperazin-1-yl)methyl)-4-(trifluoromethyl)phenyl)-4-methyl-1,4-diazepane] | > 75 |
| CN(CCN1CCCC1)c1ccc(C(F)(F)F)c(CN2CCC(c3ccc(Cl)cc3)CC2)c1 [Compound 39, 3-((4-(4-chlorophenyl)piperidin-1-yl)methyl)-N-methyl-N-(2-(pyrrolidin-1)ethyl)-4-(trifluoromethyl)aniline] | > 75 |
| Cc1cc(N2CCN(Cc3cc(N4CCCN(C)CC4)ccc3C(F)(F)F)CC2)ccc1Cl [Compound 40, 1-(3-((4-(4-chloro-3-methylphenyl)piperazin-1-yl)methyl)-4-(trifluoromethyl)phenyl)-4-methyl-1,4-diazepane] | > 75 |
| CN(C)CCN(C)c1ccc(C(F)(F)F)c(CN2CCN(c3ccc(Cl)c(F)c3)CC2)c1 [Compound 41, N^1-(3-((4-(4-chloro-3-fluorophenyl)piperazin-1-yl)methyl)-4-(trifluoromethyl)phenyl)-N^1,N^2,N^2-trimethylethan-1,2-diamine] | > 75 |
| CN(C)CCN(C)c1ccc(C(F)(F)F)c(CN2CCC(c3ccc(Cl)c(Cl)c3)CC2)c1 [Compound 42, N^1-(3-((4-(3,4-dichlorophenyl)piperidin-1-yl)methyl)-4-(trifluoromethyl)phenyl)-N^1,N^2,N^2-trimethylethan-1,2-diamine] | > 75 |
| Cc1cc(C2CCN(Cc3cc(N4CCCN(C)CC4)ccc3C(F)(F)F)CC2)ccc1Cl [Compound 43, 1-(3-((4-(4-chloro-3-methylphenyl)piperidin-1-yl)methyl)-4-(trifluoromethyl)phenyl)-4-methyl-1,4-diazepane] | > 75 |
| CN1CCCN(c2ccc(C(F)(F)F)c(CN3CCN(C(c4ccc(F)cc4)c4ccc(F)cc4)CC3)c2)CC1 [Compound 44, 1-(3-((4-(bis(4-fluorophenyl)methyl)piperazin-1-yl)methyl)-4-(trifluoromethyl)phenyl)-4-methyl-1,4-diazepane] | > 75 |
| Cc1ccc(C(c2ccc(C)cc2)N2CCN(Cc3cc(N4CCCN(C)CC4)ccc3C(F)(F)F)CC2)cc1 [Compound 45, 1-(3-((4-(bis(4-methylphenyl)methyl)piperazin-1-yl)methyl)-4-(trifluoromethyl)phenyl)-4-methyl-1,4-diazepane] | > 75 |
| CN1CCCN(c2ccc(C(F)(F)F)c(CN3CCN(C(c4ccc(Cl)cc4)c4ccc(Cl)cc4)CC3)c2)CC1 [Compound 46, 1-(3-((4-(bis(4-chlorophenyl)methyl)piperazin-1-yl)methyl)-4-(trifluoromethyl)phenyl)-4-methyl-1,4-diazepane] | > 75 |
| CN1CCCN(c2ccc(C(F)(F)F)c(CN3CCN(C(c4ccc(Br)cc4)c4ccc(Br)cc4)CC3)c2)CC1 [Compound 47, 1-(3-((4-(bis(4-bromophenyl)methyl)piperazin-1-yl)methyl)-4-(trifluoromethyl)phenyl)-4-methyl-1,4-diazepane] | > 75 |
| CC(C)c1ccc(C(c2ccc(C(C)C)cc2)N2CCN(Cc3cc(N4CCCN(C)CC4)ccc3C(F)(F)F)CC2)cc1 [Compound 48, 1-(3-((4-(bis(4-isopropylphenyl)methyl)piperazin-1-yl)methyl)-4-(trifluoromethyl)phenyl)-4-methyl-1,4-diazepane] | > 75 |
| CN(C)CCN(C)c1ccc(C(F)(F)F)c(CN2CCN(C(c3ccc(C4CC4)cc3)c3ccc(C4CC4)cc3)CC2)c1 [Compound 49, N^1-(3-((4-(bis(4-cyclopropylphenyl)methyl)piperazin-1-yl)methyl)-4-(trifluoromethyl)phenyl)-N^1,N^2,N^2-trimethylethan-1,2-diamine] | > 75 |
| CN(CCN1CCC1)c1ccc(C(F)(F)F)c(CN2CCN(C(c3ccc(Cl)cc3)c3ccc(Cl)cc3)CC2)c1 [Compound 50, N-(2-(azetidin-1-yl)ethyl)-3-((4-(bis(4-chlorophenyl)methyl)piperazin-1-yl)methyl)-N-methyl-4-(trifluoromethyl)aniline] | 50 to 75 |
| CN1CCCN(c2ccc(C(F)(F)F)c(CN3CCN(C(c4ccccc4)c4ccc(F)cc4)CC3)c2)CC1 (stereo not drawn) [Compound 51, 1-(3-((4-((4-fluorophenyl)(phenyl)methyl)piperazin-1-yl)methyl)-4-(trifluoromethyl)phenyl)-4-methyl-1,4-diazepane] | > 75 |
| CN(C)CCN(C)c1ccc(C(F)(F)F)c(CN2CCN(C(c3ccc(Cl)cc3)c3ccc(Cl)cc3)CC2)c1 [Compound 52, N^1-(3-((4-(bis(4-chlorophenyl)methyl)piperazin-1-yl)methyl)-4-(trifluoromethyl)phenyl)-N^1,N^2,N^2-trimethylethan-1,2-diamine] | > 75 |
| CN(C)CCN(C)c1ccc(C(F)(F)F)c(CN2CCN(C(c3ccc(C(F)(F)F)cc3)c3ccc(C(F)(F)F)cc3)CC2)c1 [Compound 53, N^1-(3-((4-(bis(4-(trifluoromethyl)phenyl)methyl)piperazin-1-yl)methyl)-4-(trifluoromethyl)phenyl)-N^1,N^2,N^2-trimethylethan-1,2-diamine] | > 75 |
| CN(C)CCN(C)c1ccc(C(F)(F)F)c(CN2CCN(C(c3ccccc3)c3ccc(Cl)cc3)CC2)c1 (stereo not drawn) [Compound 54, N^1-(3-((4-((4-chlorophenyl)(phenyl)methyl)piperazin-1-yl)methyl)-4-(trifluoromethyl)phenyl)-N^1,N^2,N^2-trimethylethan-1,2-diamine] | > 75 |
| CN1CCN(c2ccc(C(F)(F)F)c(CN3CCN(C(c4ccc(Cl)cc4)c4ccc(Cl)cc4)CC3)c2)CC1 [Compound 55, 1-(bis(4-chlorophenyl)methyl)-4-(5-(4-methylpiperazin-1-yl)-2-(trifluoromethyl)benzyl)piperazine] | > 75 |
